Earlier results in patent publication US20210268046A1, “CANNABINOID & PROBIOTIC SUPPOSITORIES & METHODS OF USE” (HoneyHills TX, LLC, priority 2020, published 2021).

Details: for psychotic symptoms: acute paranoid schizophrenia

SMILES | psychotic symptoms | side effects (compared with Amisuipride)
CCN1CCCC1CNC(=O)c1cc(S(=O)(=O)CC)c(N)cc1OC (stereo not drawn) [Amisuipride] | significant decrease | 
C=C(C)[C@@H]1CCC(C)=C[C@H]1c1c(O)cc(CCCCC)cc1O [cannabidiol, Cannabidiol] | significant decrease | fewer side effects
